Source: patent US20090054971A1, “DRUG ELUTING STENT SYSTEM AND MANUFACTURING PROCESS OF DRUG ELUTING STENT SYSTEM” (TERUMO KABUSHIKI KAISHA, priority 2005, published 2009)

Experiment: Storage stability of the rapamycin derivative (bulk, in glass bottle), percent residual by HPLC
Type: physicochemical
Procedure: A biologically/physiologically active substance and a deoxidant were placed and sealed within a package. After stored at 40° C. for four weeks, the remaining amount of the biologically/physiologically active substance was measured by high speed liquid chromatography (HPLC) to determine its percent residue.
Biologically/physiologically active substance: A rapamycin derivative represented by the following chemical formula (I) (product of Nippon Kayaku Co., Ltd.). An aliquot (0.03 g) of the rapamycin derivative was placed in a glass bottle, and further, the glass bottle was placed within the below-described package.
Deoxidant: “ZH-100” (product of Mitsubishi Gas Chemical Co, Inc.). Two bags, the volume of each bag being sufficient for 100 mL, were placed and sealed within the package.
Package: An aluminum pouch in the form of a bag of a size of 300 mm in length, 300 mm in width and 0.1 mm in thickness, which was formed of a stacked structure of polyethylene terephthalate, low-density polyethylene, an aluminum film, low-density polyethylene and high-density polyethylene as materials.
After stored in the above-described state at 40° C. for four weeks, the biologically/physiologically active substance was taken out of the package and was provided as “Sample A1” for HPLC. […]
By the following equation, the percent residual of the rapamycin derivative in Sample A1 was determined. […]

Structure (SMILES)	Percent residual (%) (stored in air at 40° C. for four weeks)	Percent residual (%) (sealed with deoxidant ZH-100 in aluminum pouch, stored at 40° C. for four weeks)
CCOCCOC1CCC(CC(C)C2CC(=O)C(C)C(O)C(C)C(O)C(OC)C(=O)C(C)CC(C)/C=C/C=C/C=C(\C)C(OC)CC3CCC(C)C(O)(O3)C(O)C(=O)N3CCCCC3C(=O)O2)CC1OC (centres unmarked) [Comparative Example 1]	18.2	
CCOCCOC1CCC(CC(C)C2CC(=O)C(C)C(O)C(C)C(O)C(OC)C(=O)C(C)CC(C)/C=C/C=C/C=C(\C)C(OC)CC3CCC(C)C(O)(O3)C(O)C(=O)N3CCCCC3C(=O)O2)CC1OC (centres unmarked) [Example 1]		97.3
